Laboratory results as given in patent publication US6410792B1, “Amide derivatives and methods for using the same as selective neuropeptide Y receptor antagonists” (Bayer Corporation, priority 1997, dated 2002).
Where a name gives a salt, the structure may show the parent alone. Read-outs that look alike come from different tables or passages of the source.

How the values were obtained:
Human NPY1 receptor = molecular target: T1, Human NPY1 receptor (Homo sapiens, UniProt P25929); assay: Human NPY1 receptor binding assay ([125I]PYY, SK-N-MC cells); conditions: [125I]PYY, SK-N-MC cells; read-out: hNPYI IC50
T1 construct: host or cells: SK-N-MC cells
T1 sequence (P25929 1-384): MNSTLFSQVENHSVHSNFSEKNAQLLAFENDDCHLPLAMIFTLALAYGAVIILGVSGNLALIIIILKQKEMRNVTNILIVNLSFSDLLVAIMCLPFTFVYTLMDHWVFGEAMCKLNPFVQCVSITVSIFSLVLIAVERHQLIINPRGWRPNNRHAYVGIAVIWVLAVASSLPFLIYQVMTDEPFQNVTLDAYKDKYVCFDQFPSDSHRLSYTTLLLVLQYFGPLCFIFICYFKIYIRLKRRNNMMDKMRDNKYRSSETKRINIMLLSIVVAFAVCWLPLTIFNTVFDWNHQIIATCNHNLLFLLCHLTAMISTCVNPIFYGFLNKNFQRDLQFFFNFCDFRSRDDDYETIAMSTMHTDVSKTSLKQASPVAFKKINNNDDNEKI
Procedure: A. Human NPY1 Receptor Binding Assay
This is a modification of Gordon et al., (J. Neurochem. 55:506-513, 1990). SK-N-MC cell (ATCC, Rockville, Md.) were plated in 24-well plates. Once confluent, cells were rinsed with Dulbecco's phosphate buffered saline (DPBS). Cells were then preincubated in binding buffer containing serum-free DMEM, 25 mM HEPES (pH 7.3), 0.5% bovine serum albumin (BSA), 0.1% bacitracin and 0.1 mM phenylmethylsulfonylfluoride for 30 minutes at room temperature. Drug dilution and [125I]PYY (˜50 pM: NEN-DuPont) were added to the wells, and the cells were incubated for an additional 3 hours at room temperature, followed by rinsing with ice-cold DPBS. Nonspecific binding was defined with 1 μM NPY. After lysing the cells with 1% Triton X-100, the amount of radioactivity in the lysates was quantitated with a gamma counter.

Y2 receptor = molecular target: T2, Y2 receptor (Homo sapiens, UniProt P49146); assay: Y2 receptor binding assay ([125I]PYY, membrane protein); conditions: [125I]PYY, membrane protein; read-out: hNPY2 IC50
T2 sequence (P49146 1-381): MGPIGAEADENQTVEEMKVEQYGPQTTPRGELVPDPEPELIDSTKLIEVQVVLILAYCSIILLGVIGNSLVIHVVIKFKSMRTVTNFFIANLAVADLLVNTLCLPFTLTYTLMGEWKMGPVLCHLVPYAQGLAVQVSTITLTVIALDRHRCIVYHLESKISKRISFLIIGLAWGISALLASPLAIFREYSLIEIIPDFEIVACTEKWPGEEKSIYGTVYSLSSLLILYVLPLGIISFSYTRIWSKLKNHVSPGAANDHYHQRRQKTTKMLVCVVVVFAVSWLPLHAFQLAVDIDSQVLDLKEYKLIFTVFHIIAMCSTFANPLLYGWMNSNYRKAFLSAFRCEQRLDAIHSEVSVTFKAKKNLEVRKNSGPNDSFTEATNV
In short: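 Filtration binding with membrane protein and drug dilution, 2 h at room temperature with mixing, radioactivity counted by gamma or scintillation. Y2: 25 pM [125I]PYY in Krebs-Ringer bicarbonate pH 7.4 with 0.01% BSA, nonspecific by 1 μM NPY. Y4/PP1: 50 pM [125I]hPP in HEPES-buffered saline pH 7.4 with protease inhibitors and 0.3% BSA, nonspecific by 1 μM hPP.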

human Y4/PP1 receptor = human Y4/PP1 receptor (Homo sapiens, UniProt P50391); assay: Human Y4/PP1 receptor binding assay ([125I]human PP, membrane protein); conditions: [125I]human PP, membrane protein; read-out: hNPY4 IC50
Procedure: B. Human Y2 and Y4/PP1 Receptor Binding Assays
Binding assays were performed on GF/C Millipore 96-well plates pretreated with 0.02% polyethylenimine. The binding buffer for rat Y2 binding is Krebs-Ringer bicarbonate (pH 7.4) containing 0.01% BSA and 0.005% bacitracin. Samples consist of membrane protein, 25 pM [1251]PYY and drug dilution. Nonspecific binding is defined by 1 μM NPY. The binding buffer for human Y4/PP1 binding consists of 137 mM NaCl, 5.4 mM KCl, 0.44 mM KH2PO4, 1.26 mM CaCl2, 0.81 mM MgSO4, 20 mM HEPES, 1 mM dithiothreitol, 0.1% bacitracin, 100 mg/l streptomycin sulfate, 1 mg/l aprotinin, 10 mg/ml soybean trypsin inhibitor and 0.3% BSA, pH 7.4. Samples consist of membrane protein, 50 pM human [1251]human PP (hPP: NEN DuPont, Boston, Mass.) and drug dilution. 1 μM hPP is used to define nonspecific binding.
After a 2 hour incubation at room temperature with constant mixing, the samples are aspirated on a vacuum manifold, and rinsed with ice-cold binding buffer. The amount of radioactivity in each well is quantitated with either gamma counting or liquid scintillation.

Human NPY5 receptor = molecular target: T3, Human NPY5 receptor (Homo sapiens, UniProt Q15761); assay: Human NPY5 receptor binding assay ([125I]PYY, membrane protein)
T3 sequence (Q15761 1-445): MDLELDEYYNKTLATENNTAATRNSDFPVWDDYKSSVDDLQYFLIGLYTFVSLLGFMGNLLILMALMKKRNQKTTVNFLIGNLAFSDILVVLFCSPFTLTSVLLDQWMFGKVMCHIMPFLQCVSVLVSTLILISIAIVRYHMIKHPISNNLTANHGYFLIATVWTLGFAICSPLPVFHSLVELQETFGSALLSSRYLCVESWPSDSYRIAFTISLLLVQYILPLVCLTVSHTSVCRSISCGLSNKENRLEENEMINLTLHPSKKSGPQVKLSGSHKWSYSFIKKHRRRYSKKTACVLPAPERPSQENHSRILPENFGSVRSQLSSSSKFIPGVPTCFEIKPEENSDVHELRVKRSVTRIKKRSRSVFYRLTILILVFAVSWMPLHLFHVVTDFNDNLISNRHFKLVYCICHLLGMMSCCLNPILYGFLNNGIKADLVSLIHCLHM
In short: (§1)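 Radioligand displacement: 75-100 pM [125I]PYY (porcine), membranes, drug dilution; 2 h, RT, mixing; 25 mM Tris pH 7.4 with 0.1% BSA, 0.5 mg/ml bacitracin. NSB 1 μM PYY. Filtration on PEI-treated GF/C, ice-cold buffer wash, gamma or scintillation counting.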

Rat NPY5 receptor = molecular target: T4, Rat NPY5 receptor (Rattus norvegicus, UniProt Q63634); assay: Rat NPY5 receptor binding assay ([125I]PYY, membrane protein)
T4 sequence (Q63634 1-445): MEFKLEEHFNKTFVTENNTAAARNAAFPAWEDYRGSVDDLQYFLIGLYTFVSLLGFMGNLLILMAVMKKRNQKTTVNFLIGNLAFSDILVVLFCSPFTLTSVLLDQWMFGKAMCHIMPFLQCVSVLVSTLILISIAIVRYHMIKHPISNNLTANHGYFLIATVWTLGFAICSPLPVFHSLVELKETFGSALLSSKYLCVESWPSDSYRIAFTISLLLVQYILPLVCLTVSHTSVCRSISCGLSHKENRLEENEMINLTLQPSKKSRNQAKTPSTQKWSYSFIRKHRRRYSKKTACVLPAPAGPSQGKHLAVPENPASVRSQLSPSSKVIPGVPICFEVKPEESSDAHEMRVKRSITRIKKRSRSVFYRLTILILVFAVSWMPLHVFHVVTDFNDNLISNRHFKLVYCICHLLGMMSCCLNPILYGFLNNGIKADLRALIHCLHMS
In short: as §1

[1] = [125I]PYY, read-out: hNPY5 IC50
[2] = [125I]PYY, read-out: rNPY5 IC50

Sequence of human Y4/PP1 receptor (P50391 whole entry): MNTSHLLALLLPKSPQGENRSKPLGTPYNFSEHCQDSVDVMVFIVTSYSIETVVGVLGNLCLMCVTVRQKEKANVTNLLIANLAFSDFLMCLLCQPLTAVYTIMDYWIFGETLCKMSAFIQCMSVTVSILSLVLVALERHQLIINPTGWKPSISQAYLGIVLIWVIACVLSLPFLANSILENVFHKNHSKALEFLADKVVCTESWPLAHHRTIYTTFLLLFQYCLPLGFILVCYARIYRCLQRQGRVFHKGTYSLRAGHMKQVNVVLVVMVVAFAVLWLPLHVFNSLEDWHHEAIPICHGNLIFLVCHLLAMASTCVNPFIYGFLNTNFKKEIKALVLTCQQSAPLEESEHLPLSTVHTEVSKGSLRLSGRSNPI

IC50 (Human NPY1 receptor) [nM]	IC50 (Y2 receptor) [nM]	IC50 (human Y4/PP1 receptor) [nM]	IC50 (Human NPY5 receptor; [1]) [nM]	IC50 (Rat NPY5 receptor; [2]) [nM]	SMILES	IC50 (Human NPY5 receptor; hNPY5 IC50, [125I]PYY) [nM]	IC50 (Rat NPY5 receptor; rNPY5 IC50, [125I]PYY) [nM]
> 5000	> 5000	> 5000	6	4	O=C(CN1CCC(n2c(=O)[nH]c3ccccc32)CC1)Nc1ccc2c(c1)Cc1ccccc1-2 [Compound 325, N-(9H-Fluoren-2-yl)-2-[4-(2-oxo-2,3-dihydro-benzoimidazol-1-yl)-piperidin-1-yl]-acetamide]		
> 5000	> 5000	> 5000	220	205	CCN(CC)c1ccc(NC(=O)CN2CCC(n3c(=O)[nH]c4ccccc43)CC2)cc1 [Compound 336, N-(4-Diethylamino-phenyl)-2-[4-(2-oxo-2,3-dihydro-benzoimidazol-1-yl)-piperidin-1-yl]-acetamide, reference compound]		
> 5000	> 5000	> 5000	910	1200	CN(C)c1cccc(NC(=O)CN2CCC(n3c(=O)[nH]c4ccccc43)CC2)c1 [Compound 338, reference compound]		
> 5000	> 5000	> 5000	2700	1700	O=C(CN1CCC(n2c(=O)[nH]c3ccccc32)CC1)Nc1ccc2cn[nH]c2c1 [Compound 344, N-(1H-Indazol-6-yl)-2-[4-(2-oxo-2,3-dihydro-benzoimidazol-1-yl)-piperidin-1-yl]-acetamide, reference compound]		
> 5000	> 5000	> 5000	143	130	CCOc1ccc(NC(=O)CN2CCC(n3c(=O)[nH]c4ccccc43)CC2)cc1 [Compound 347, N-(4-Ethoxy-phenyl)-2-[4-(2-oxo-2,3-dihydro-benzoimidazol-1-yl)-piperidin-1-yl]-acetamide, reference compound]		
> 5000	> 5000	> 5000	1200	> 10000	O=C(CN1CCC(n2c(=O)[nH]c3ccccc32)CC1)Nc1ccccc1Cl [Compound 348, N-(2-Chloro-phenyl)-2-[4-(2-oxo-2,3-dihydro-benzoimidazol-1-yl)-piperidin-1-yl]-acetamide, reference compound]		
> 5000	> 5000	> 5000	2300	1400	NC(=O)c1ccc(NC(=O)CN2CCC(n3c(=O)[nH]c4ccccc43)CC2)cc1 [Compound 350, 4-(2-[4-(2-Oxo-2,3-dihydro-benzoimidazol-1-yl)-piperidin-1-yl]-acetylamino)-benzamide, reference compound]		

Further lines, the compound ahead of its results:

SMILES	IC50 (Human NPY1 receptor) [nM]	IC50 (Y2 receptor) [nM]	IC50 (human Y4/PP1 receptor) [nM]	IC50 (Human NPY5 receptor; [1]) [nM]	IC50 (Rat NPY5 receptor; [2]) [nM]	IC50 (Human NPY5 receptor; hNPY5 IC50, [125I]PYY) [nM]	IC50 (Rat NPY5 receptor; rNPY5 IC50, [125I]PYY) [nM]
O=C(CNCCCn1c(=O)[nH]c2ccccc21)Nc1ccc(-c2ccccc2)cc1 [Compound 277, N-Biphenyl-4-yl-2-[3-(2-oxo-2,3-dihydro-benzoimidazol-1-yl)-propylamino]-acetamide]	> 5000	> 5000	> 5000	890	1600		
O=C(Nc1ccc(C2CCCCC2)cc1)C(c1ccccc1)N1CCC(n2c(=O)[nH]c3ccccc32)CC1 (centres unmarked) [Compound 313, N-(4-Cyclohexyl-phenyl)-2-[4-(2-oxo-2,3-dihydro-benzoimidazol-1-yl)-piperidin-1-yl]-2-phenyl-acetamide]	> 5000	> 5000	> 5000			35	20
O=C(CN1CCC(n2c(=O)[nH]c3ccccc32)CC1)Nc1ccccc1-c1ccccc1 [Compound 324, N-Biphenyl-2-yl-2-[4-(2-oxo-2,3-dihydro-benzoimidazol-1-yl)-piperidin-1-yl]-acetamide; hydrochloride]	> 5000	> 5000	> 5000	390	690		
CC(C(=O)Nc1ccc(-c2ccccc2)cc1)N1CCC(n2c(=O)[nH]c3ccccc32)CC1 (centres unmarked) [Compound 329, N-Biphenyl-4-yl-2-[4-(2-oxo-2,3-dihydro-benzoimidazol-1-yl)-piperidin-1-yl]-propionamide; hydrochloride]	> 5000	> 5000	> 5000	20	16		
Nc1cc(S(=O)(=O)c2ccccc2)ccc1NC(=O)CN1CCC(n2c(=O)[nH]c3ccccc32)CC1 [Compound 335, N-(2-Amino-4-benzenesulfonyl-phenyl)-2-[4-(2-oxo-2,3-dihydro-benzoimidazol-1-yl)-piperidin-1-yl]-acetamide, reference compound]	> 5000	> 5000	> 5000	110	98		
CCCCOc1ccc2ccc(NC(=O)CN3CCC(n4c(=O)[nH]c5ccccc54)CC3)cc2c1 [Compound 343, N-(7-Butoxy-naphthalen-2-yl)-2-[4-(2-oxo-2,3-dihydro-benzoimidazol-1-yl)-piperidin-1-yl]-acetamide, reference compound]	> 5000	> 5000	> 5000	110	45		
